Laboratory results reported in the supplement of paper PMC10307832.

Assays:
Assay in all cases: relative viability (nuclei count vs DMSO), 5 days (fraction); higher = more cells survive
Veliparib + AZD7762 = compound: C[C@]1(c2nc3c(C(N)=O)cccc3[nH]2)CCCN1 [Veliparib] + NC(=O)Nc1cc(-c2cccc(F)c2)sc1C(=O)N[C@H]1CCCNC1 [AZD7762] (partner 0.2 µM)
How it was run: (§1)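 Lung cancer cell lines were pin-tool dosed in 1536-well plates on the day after seeding, with either a lone drug or a fixed anchor-drug dose plus five library-drug doses (not always all listed) in √10 steps. Nuclei were counted on 4× images after 5 days. Relative viability is the ratio of treated-well to vehicle-well nuclei counts, with each value a median of duplicate plates.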

[1] = compound: COC1=CC=C(C=C1)CN2C=CC3=C2C=C(C=C3)C(=O)NO + O=C(CCCCCCC(=O)Nc1ccccc1)NO [Vorinostat] (partner 1 µM)
How it was run: as §1

[2] = compound: COC1=CC=C(C=C1)CN2C=CC3=C2C=C(C=C3)C(=O)NO + CC(C)C[C@H](NC(=O)[C@H](Cc1ccccc1)NC(=O)c1cnccn1)B(O)O [Bortezomib] (partner 0.002 µM)
How it was run: as §1

Veliparib + Phenformin = compound: C[C@]1(c2nc3c(C(N)=O)cccc3[nH]2)CCCN1 [Veliparib] + N=C(N)NC(=N)NCCc1ccccc1 [Phenformin] (partner 250 µM)
How it was run: as §1

## NCI-H3122
Veliparib + AZD7762; first compound 0.02 µM
  relative viability: 0.937
Veliparib + AZD7762; first compound 0.06325 µM
  relative viability: 1.01
Veliparib + AZD7762; first compound 0.2 µM
  relative viability: 0.986
Veliparib + AZD7762; first compound 0.6325 µM
  relative viability: 0.971
Veliparib + AZD7762; first compound 2 µM
  relative viability: 1.01
[1]; first compound 0.08 µM
  relative viability: 0.752
[1]; first compound 0.253 µM
  relative viability: 1.08
[1]; first compound 0.8 µM
  relative viability: 1.01
[1]; first compound 2.53 µM
  relative viability: 1.17
[1]; first compound 8 µM
  relative viability: 0.982
[2]; first compound 0.08 µM
  relative viability: 1.06
[2]; first compound 0.253 µM
  relative viability: 1.03
[2]; first compound 0.8 µM
  relative viability: 1.04
[2]; first compound 2.53 µM
  relative viability: 1.09
[2]; first compound 8 µM
  relative viability: 0.983
Veliparib + Phenformin; first compound 0.02 µM
  relative viability: 0.335
Veliparib + Phenformin; first compound 0.06325 µM
  relative viability: 0.345
Veliparib + Phenformin; first compound 0.2 µM
  relative viability: 0.384
Veliparib + Phenformin; first compound 0.6325 µM
  relative viability: 0.357
Veliparib + Phenformin; first compound 2 µM
  relative viability: 0.387
